The values below come from patent US9643951B2, “Compound having somatostatin receptor agonistic activity and pharmaceutical use thereof” (ONO PHARMACEUTICAL CO., LTD., priority 2013, dated 2017).

As usually defined, the EC50 is the concentration giving half of the maximal effect. A high value points to lower potency in that assay.

SMILES strings stand for the structures.

A short description of data set [1]: Human hepatic microsome stability test. The format is in vitro ADME. The note with it: human hepatic microsomes 1 mg/mL; 60 minutes; test compound 0.001 mmol/L; 37° C. Here is the method: Human Hepatic Microsome Stability Test
To a reaction vessel heated to 37° C. in a water bath, 0.392 mL of phosphate buffer (0.1 mol/L, pH 7.4) containing human hepatic microsomes (1 mg/mL, Xenotech) and NADPH-Co-factor (NADP+1.3 mmol/L, BD-Bioscience) was added and pre-incubated for 5 minutes. A 50% acetonitrile solution (0.008 mL) containing 0.05 mmol/L of a test compound was added thereto to initiate the enzyme reaction (final concentration of the test compound: 0.001 mmol/L). Immediately after initiation of the reaction and at 60 minutes thereafter, 0.050 mL of the reaction solution was respectively collected, which was immediately added to an acetonitrile solution (0.2 mL) containing an internal standard (45 nmol/L, 1-[3-(3,5-dimethylphenyl)-4-quinolinyl]-4-piperidineamine) to terminate the enzyme reaction.
The residual rate (%), which is indicative of stability of the test compound, was calculated using the ratio of peak areas between the test compound and the internal substance determined by LC/MS/MS (TSQ Quantum Discovery MAX, Thermo) analysis of the sample thus prepared by the above procedures followed by filtration, and the equation: {[residual rate (%)=[peak area of a test compound in a sample at 60 minutes after initiation of the reaction/peak area of the internal standard]/[peak area of the test compound in the sample immediately after initiation of the reaction/peak area of the internal standard]×100}.

Data set [2] concerns growth hormone (GH) secretion. Kind of data set: Evaluation of suppression of growth hormone (GH) secretion using rats (GHRH-induced). The format is in vivo. The settings on record: Rattus norvegicus, Procedure (B): oral administration 8 hours beforehand, read-out: percentage of suppression of GH secretion. As for the experimental part: Evaluation of Suppression of Growth Hormone (GH) Secretion Using Rats
[Procedure (A): Administration of a Test Compound 30 Minutes Beforehand]
A medium (distilled water (Otsuka distilled water, Otsuka Pharmaceutical Factory, […]) IGS rats (Charles River Laboratories Japan, Inc.)) and after 27 minutes, the animals were administered with 50 mg/kg of pentobarbital sodium (Somnopentyl, Kyoritsu Seiyaku Corporation) via the tail vein for anaesthesia. Three minutes after administration of pentobarbital sodium, the rats were administered with 0.01 mg/kg of growth hormone-releasing hormone (GHRH, Bachem) via the tail vein to induce GH secretion. In order to measure the blood GH concentration, 0.2 mL of blood was collected through the jugular vein at 5 minutes after administration of GHRH. The collected blood was centrifuged at 4° C., 13,000×g for 5 minutes to obtain plasma. The blood GH concentration was measured by using Rat/Mouse Growth Hormone ELISA (Millipore) following the instruction of the kit. The percentage (%) of suppression of GH secretion was determined by using the obtained blood GH concentration and the equation {[suppression (%) of GH secretion]=([blood GH concentration of the group administered with the medium]−[blood GH concentration of the group administered with a test compound])/[blood GH concentration of the group administered with the medium]×100}. In the equation, the group administered with the medium represents the group of animals administered with the medium and the group administered with a test compound represents the group of animals administered with a test compound dissolved in the medium.
[Procedure (B): Administration of a Test Compound 8 Hours Beforehand]
A medium (distilled water (Otsuka distilled water, Otsuka Pharmaceutical Factory, […]) IGS rats (Charles River Laboratories Japan, Inc.)) and after 7 hours and 57 minutes, the animals were administered with 50 mg/kg of pentobarbital sodium (Somnopentyl, Kyoritsu Seiyaku Corporation) via the tail vein for anaesthesia. Three minutes after administration of pentobarbital sodium, the rats were administered with 0.01 mg/kg of growth hormone-releasing hormone (GHRH, Bachem) via the tail vein to induce GH secretion. The rest of the procedure is the same as in [Procedure (A)] described above.

The target of data set [3] is T1, human SSTR2 (Homo sapiens, UniProt P30874).
T1 construct: Myc; expressed in transfected cells
T1 sequence (P30874 whole entry): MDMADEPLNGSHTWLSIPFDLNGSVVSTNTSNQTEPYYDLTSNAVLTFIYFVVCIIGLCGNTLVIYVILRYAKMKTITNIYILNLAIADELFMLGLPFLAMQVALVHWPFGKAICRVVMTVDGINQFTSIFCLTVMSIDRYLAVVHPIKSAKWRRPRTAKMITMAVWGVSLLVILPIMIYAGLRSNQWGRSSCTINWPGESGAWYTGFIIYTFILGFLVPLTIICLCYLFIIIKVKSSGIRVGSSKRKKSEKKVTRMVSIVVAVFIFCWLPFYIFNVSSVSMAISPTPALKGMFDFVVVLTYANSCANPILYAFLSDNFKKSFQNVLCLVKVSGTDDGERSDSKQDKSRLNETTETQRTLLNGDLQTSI
Briefly: Evaluation of SSTR2 agonistic activity using cells expressing human SSTR2 (suppression of forskolin-stimulated cAMP production, SSTR2-CHO-K1). The format is cell-based. As for the experimental part:
Evaluation of SSTR2 Agonistic Activity Using Cells Expressing Human SSTR2
(1) Isolation of Human SSTR2 Gene
Human brain cDNA was purchased from Ambion (catalogue No.: 7962; Lot No.: 040200121). PCR primers, hSSTR2_F1_XhoI: 5′-[…]-3′ (SEQ ID NO: 1) and hSSTR2_R1_EcoRI: 5′-[…]-3′ (SEQ ID NO: 2) were designed on the basis of the sequence GenBank NM_001050.
PCR reaction (95° C. for 2 min.→[98° C. for 10 sec., 60° C. for 30 sec. and 68° C. for 90 sec.]×30 cycles) was carried out using the human brain cDNA as a template and using KOD-plus-(TOYOBO Co., Ltd.). The amplified PCR product was subjected to 1% agarose gel electrophoresis, purified using QIAquick Gel Extraction Kit (QIAGEN) and digested with restriction enzymes XhoI and EcoRI. The digested fragments were ligated to an expression vector (pIRESneo-Myc) using the DNA Ligation Kit Ver. 2 (Takara) and used for transformation of E. coli DH5a. The plasmid pIRESneo-Myc/hSSTR2 was prepared and the DNA sequence thereof was confirmed.
(2) Culture of CHO-K1 Cells
CHO-K1 (−) was cultured in Ham's F-12 medium (containing foetal bovine serum (10%), penicillin (100 U/mL) and streptomycin (0.1 mg/mL)). The transduced cells were cultured in the same medium supplemented with Geneticin (1 mg/mL).
(3) Transduction of CHO-K1 Cells
CHO-K1(−) cells were transduced with the plasmid pIRESneo-Myc/hSSTR2 using Lipofectamine 2000 (Invitrogen). After 48 hours, selection was carried out by replacing the medium with the one containing 1 mg/mL of Geneticin to establish a stable overexpressing cell line (SSTR2-CHO-K1).
(4) Evaluation of SSTR2 Agonistic Activity
The human SSTR2 agonistic activity of a test compound was evaluated according to the following procedures by using a suppression activity of intracellular cyclic AMP (cAMP) production by forskolin stimulation as an index. SSTR2-CHO-K1 cells suspended in Ham's F-12 medium (containing foetal bovine serum (10%), penicillin (100 U/mL) and streptomycin (0.1 mg/mL)) supplemented with 0.25 mg/mL of Geneticin were inoculated into a 96-well plate at a density of 4.0×10^4 cells/0.1 mL per well. On the next day, the medium was removed and washed twice with 0.1 mL of wash buffer [0.1% bovine serum albumin (BSA), 20 mmol/L 4-(2-hydroxyethyl)-1-piperazineethane sulphonic acid (HEPES)-containing Hank's balanced salt solution (HBSS)]. An assay buffer [[…] 3-isobutyl-1-methylxanthine (IBMX), 0.1% BSA, 20 mmol/L HEPES-containing HBSS] was added to the wells at 0.06 mL per well and the plate was incubated for 15 minutes under the conditions of 5% carbon dioxide and 37° C. Thereafter, an assay buffer containing a test compound at a concentration twice as high as the final concentration and 0.02 mmol/L of forskolin was added to wells at 0.06 mL per well and the plate was incubated for 30 minutes under the conditions of 5% carbon dioxide and 37° C. Thereafter, the Assay/Lysis buffer included in the cAMP-Screen® kit (available from Applied Biosystems) was added to wells at 0.12 mL per well and the plate was incubated for 30 minutes under the conditions of 5% carbon dioxide and 37° C. The concentration of cAMP in samples were measured by ELISA according to the instruction of the kit.

Data set [4] in a line: Evaluation of cytotoxicity using cultured human hepatocytes (intracellular ATP). The format is cell-based. The note with it: read-out: IC50 of cytotoxicity (concentration at which 50% of the luminescence is suppressed). As for the experimental part:
Evaluation of Cytotoxicity Using Cultured Human Hepatocytes
Frozen adhesive human hepatocytes were thawed, suspended in a hepatocellular medium (HCM) purchased from Lonza and inoculated to a 96-well plate coated with collagen. The culture medium of the hepatocytes cultured overnight in an incubator (5% carbon dioxide, 95% air, 37° C.) was exchanged to the medium containing a test compound at a concentration of 0, 12.5, 25, 50, 100, 200 or 400 (×10^−6 mol/L) and the cells were further cultured for 24 hours. Cytotoxicity was evaluated by measuring the intracellular ATP concentration. Specifically, using the Promega Celltiter-Glo luminescent assay kit available from Promega, cells were lysed in the assay buffer included in the kit and the concentration of ATP released from the cells was measured according to the luminescence resulting from luciferin-luciferase enzyme activity. The luminescence was measured on the SpectraMax plate reader from Molecular Devices. The extent of cytotoxicity of a test compound is represented by the concentration (IC50) of the compound at which 50% of the luminescence is suppressed.

Regarding `CCNC1CCN(c2c(-c3ccc(C(F)(F)F)cc3)cncc2-c2cc(Cl)cc(Cl)c2)CC1` [Example 5(1), 1-{3-(3,5-dichlorophenyl)-5-[4-(trifluoromethyl)phenyl]-4-pyridinyl}-N-ethyl-4-piperidineamine], in data set [1], the residual rate came out at 57.6%. The inhibition in vivo at 1 mg/kg in data set [2] was found to be 90%. A half-maximal response in data set [3] (EC50) required 0.045 nM. Moreover, the IC50 at 24 h in data set [4] is 18 µM.
On the same counts, the results for `CCNC1CCN(c2c(/C=C/c3cccc(C#N)c3)cncc2-c2cc(Cl)cc(Cl)c2)CC1` [Example 5(6), 3-[(E)-2-{5-(3,5-dichlorophenyl)-4-[4-(ethylamino)-1-piperidinyl]-3-pyridinyl}vinyl]benzonitrile] are 83.9%, 89%, 0.048 nM and 18 µM.
The like results for `Fc1cccc(/C=C/c2cncc(-c3cc(Cl)cc(Cl)c3)c2N2CC[C@@H]3NCCO[C@H]3C2)c1` [Example 3(2), (4aS,8aS)-6-{3-(3,5-dichlorophenyl)-5-[(E)-2-(3-fluorophenyl)vinyl]-4-pyridinyl}octahydro-1H-pyrido[3,4-b][1,4]oxazine] were, in that order, 48.4%, 84%, 0.097 nM and 17 µM.
The like results for `N#CC1(c2ccc(-c3cncc(-c4cc(Cl)cc(Cl)c4)c3N3CC[C@@H]4NCCO[C@H]4C3)cc2)CC1` [Example 2(5), 1-(4-{5-(3,5-dichlorophenyl)-4-[(4aS,8aS)-octahydro-6H-pyrido[3,4-b][1,4]oxazin-6-yl]-3-pyridinyl}phenyl)cyclopropanecarbonitrile] were, in that order, 53.1%, 85%, 0.05 nM and 19 µM.
With `CC(C)(C#N)c1ccc(-c2cncc(-c3cc(Cl)cc(Cl)c3)c2N2CCC(N)CC2)cc1` [Example 2(4), 2-{4-[4-(4-amino-1-piperidinyl)-5-(3,5-dichlorophenyl)-3-pyridinyl]phenyl}-2-methylpropanenitrile], the residual rate in data set [1] came to 94.0%. Besides, the inhibition in vivo at 1 mg/kg in data set [2] stood at 88%. In data set [3], this compound yielded an EC50 of 0.024 nM. The IC50 at 24 h in data set [4] is 13 µM.
On the same counts, the results for `CCNC1CCN(c2c(-c3ccc(OC(F)F)cc3)cncc2-c2cc(Cl)cc(Cl)c2)CC1` [Example 5(3), 1-{3-(3,5-dichlorophenyl)-5-[4-(difluoromethoxy)phenyl]-4-pyridinyl}-N-ethyl-4-piperidineamine] are 67.7%, 96%, 0.028 nM and 10 µM.
For the compound `NC1CCN(c2c(NC(=O)c3cccc(Cl)c3)cncc2-c2cc(F)cc(Cl)c2)CC1` [Example 7, N-[4-(4-amino-1-piperidinyl)-5-(3-chloro-5-fluorophenyl)-3-pyridinyl]-3-chlorobenzamide], the residual rate in data set [1] is given as 100.0%. Also, the inhibition in vivo at 10 mg/kg in data set [2] (10 mg/kg) is 93%. This compound also had an EC50 in data set [3] of 0.34 nM. In addition, the IC50 at 24 h in data set [4] was 74 µM.
The compound `N#CC1(c2ccc(-c3cncc(-c4cc(Cl)cc(Cl)c4)c3N3CCC(N)CC3)cc2)CC1` [Example 2(2), 1-{4-[4-(4-amino-1-piperidinyl)-5-(3,5-dichlorophenyl)-3-pyridinyl]phenyl}cyclopropanecarbonitrile] registered a residual rate in data set [1] of 100.0%. In data set [2], the inhibition in vivo at 1 mg/kg amounted to 93%. The concentration giving a half-maximal response (EC50) in data set [3] worked out at 0.013 nM. In data set [4], the IC50 at 24 h is 11 µM.
`NC1CCN(c2c(-c3ccc(OC(F)F)cc3)cncc2-c2cc(F)cc(Cl)c2)CC1` [Example 2(1), 1-{3-(3-chloro-5-fluorophenyl)-5-[4-(difluoromethoxy)phenyl]-4-pyridinyl}-4-piperidineamine] registered a residual rate in data set [1] of 100.0%. Further, the inhibition in vivo at 1 mg/kg in data set [2] was found to be 91%. The concentration giving a half-maximal response (EC50) in data set [3] came to 0.041 nM. In data set [4], the IC50 at 24 h came to 19 µM.
`C/C(=C\c1cncc(-c2cc(Cl)cc(Cl)c2)c1N1CCC(N)CC1)c1cccc(F)c1` [Example 3, 1-{3-(3,5-dichlorophenyl)-5-[(1E)-2-(3-fluorophenyl)-1-propen-1-yl]-4-pyridinyl}-4-piperidineamine]: the residual rate in data set [1] worked out at 85.2%. The inhibition in vivo at 1 mg/kg in data set [2] came out at 88%. The 50% effective concentration (EC50) in data set [3] is 0.04 nM. Also, the IC50 at 24 h in data set [4] was found to be 36 µM.
